Assay results: PubChem BioAssay AID2060328 (Molecular Pharmacology Branch, DTP, NCI, 2025)

System: MDA-MB-231 multicell spheroids, viability (%T/C)
Experiment: Anticancer human tumor MDA-MB-231 cell line growth inhibition [IpAb];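 further: viability read after seven days of drug exposure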;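 on viability, T/C: 100% = DMSO vehicle control viability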
Conditions: for IC50: curve of first compound; for viability, T/C: stronger effect = lower value
Summary of the method: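 Multi-cell spheroids of 60% tumour cells, 25% HUVEC and 15% MSC in ultra-low-attachment U-bottom wells, treated with agents combined with ipatasertib or abemaciclib. Half-log ranges top out near clinical Cmax, or 10 microM when Cmax is unknown.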

C=CCn1c(=O)c2cnc(Nc3ccc(N4CCN(C)CC4)cc3)nc2n1-c1cccc(C(C)(C)O)n1 + CCN1CCN(Cc2ccc(Nc3ncc(F)c(-c4cc(F)c5nc(C)n(C(C)C)c5c4)n3)nc2)CC1
IC50 (second compound 0.01 µM): 239 nM | IC50 (second compound 0.0316 µM): 208 nM | IC50 (second compound 0.1 µM): 177 nM | IC50 (second compound 0.316 µM): 33.4 nM | IC50 (second compound 1 µM): 325 nM | viability, T/C (second compound 0.01 µM, first compound 0.0316 µM): 88.8% | viability, T/C (second compound 0.01 µM, first compound 0.1 µM): 85% | viability, T/C (second compound 0.01 µM, first compound 0.316 µM): 38.6% | viability, T/C (second compound 0.01 µM, first compound 1 µM): 20.3% | viability, T/C (second compound 0.01 µM, first compound 3.16 µM): 15.4% | viability, T/C (second compound 0.01 µM, first compound 10 µM): 20% | viability, T/C (second compound 0.0316 µM, first compound 0.0316 µM): 80.1% | viability, T/C (second compound 0.0316 µM, first compound 0.1 µM): 69.3% | viability, T/C (second compound 0.0316 µM, first compound 0.316 µM): 38.9% | viability, T/C (second compound 0.0316 µM, first compound 1 µM): 23% | viability, T/C (second compound 0.0316 µM, first compound 3.16 µM): 17.9% | viability, T/C (second compound 0.0316 µM, first compound 10 µM): 20% | viability, T/C (second compound 0.1 µM, first compound 0.0316 µM): 59.8% | viability, T/C (second compound 0.1 µM, first compound 0.1 µM): 56.8% | viability, T/C (second compound 0.1 µM, first compound 0.316 µM): 43.1% | viability, T/C (second compound 0.1 µM, first compound 1 µM): 26.1% | viability, T/C (second compound 0.1 µM, first compound 3.16 µM): 19.9% | viability, T/C (second compound 0.1 µM, first compound 10 µM): 21.2% | viability, T/C (second compound 0.316 µM, first compound 0.0316 µM): 47.4% | viability, T/C (second compound 0.316 µM, first compound 0.1 µM): 48.7% | viability, T/C (second compound 0.316 µM, first compound 0.316 µM): 42.5% | viability, T/C (second compound 0.316 µM, first compound 1 µM): 32.9% | viability, T/C (second compound 0.316 µM, first compound 3.16 µM): 24.8% | viability, T/C (second compound 0.316 µM, first compound 10 µM): 26.4% | viability, T/C (second compound 1 µM, first compound 0.0316 µM): 51.8% | viability, T/C (second compound 1 µM, first compound 0.1 µM): 51.7% | viability, T/C (second compound 1 µM, first compound 0.316 µM): 50.5% | viability, T/C (second compound 1 µM, first compound 1 µM): 48.5% | viability, T/C (second compound 1 µM, first compound 3.16 µM): 41% | viability, T/C (second compound 1 µM, first compound 10 µM): 36.5%

Cn1cnc2c(F)c(Nc3ccc(Br)cc3Cl)c(C(=O)NOCCO)cc21 + CCN1CCN(Cc2ccc(Nc3ncc(F)c(-c4cc(F)c5nc(C)n(C(C)C)c5c4)n3)nc2)CC1
IC50 (second compound 0.01 µM): 34.1 nM | IC50 (second compound 0.0316 µM): < 9.49 nM | IC50 (second compound 0.1 µM): < 9.49 nM | IC50 (second compound 0.316 µM): < 9.49 nM | IC50 (second compound 1 µM): < 9.49 nM | viability, T/C (second compound 0.01 µM, first compound 0.00949 µM): 54.5% | viability, T/C (second compound 0.01 µM, first compound 0.03 µM): 53.4% | viability, T/C (second compound 0.01 µM, first compound 0.0949 µM): 42.8% | viability, T/C (second compound 0.01 µM, first compound 0.3 µM): 36.9% | viability, T/C (second compound 0.01 µM, first compound 0.949 µM): 32.3% | viability, T/C (second compound 0.01 µM, first compound 3 µM): 20.4% | viability, T/C (second compound 0.0316 µM, first compound 0.00949 µM): 46.3% | viability, T/C (second compound 0.0316 µM, first compound 0.03 µM): 40.9% | viability, T/C (second compound 0.0316 µM, first compound 0.0949 µM): 35.9% | viability, T/C (second compound 0.0316 µM, first compound 0.3 µM): 30.9% | viability, T/C (second compound 0.0316 µM, first compound 0.949 µM): 25.5% | viability, T/C (second compound 0.0316 µM, first compound 3 µM): 13.3% | viability, T/C (second compound 0.1 µM, first compound 0.00949 µM): 36.9% | viability, T/C (second compound 0.1 µM, first compound 0.03 µM): 30.1% | viability, T/C (second compound 0.1 µM, first compound 0.0949 µM): 29.6% | viability, T/C (second compound 0.1 µM, first compound 0.3 µM): 25.4% | viability, T/C (second compound 0.1 µM, first compound 0.949 µM): 19.2% | viability, T/C (second compound 0.1 µM, first compound 3 µM): 12.2% | viability, T/C (second compound 0.316 µM, first compound 0.00949 µM): 28.2% | viability, T/C (second compound 0.316 µM, first compound 0.03 µM): 27% | viability, T/C (second compound 0.316 µM, first compound 0.0949 µM): 22% | viability, T/C (second compound 0.316 µM, first compound 0.3 µM): 19.2% | viability, T/C (second compound 0.316 µM, first compound 0.949 µM): 16.1% | viability, T/C (second compound 0.316 µM, first compound 3 µM): 9.49% | viability, T/C (second compound 1 µM, first compound 0.00949 µM): 28.7% | viability, T/C (second compound 1 µM, first compound 0.03 µM): 25.3% | viability, T/C (second compound 1 µM, first compound 0.0949 µM): 20.1% | viability, T/C (second compound 1 µM, first compound 0.3 µM): 17.4% | viability, T/C (second compound 1 µM, first compound 0.949 µM): 14.9% | viability, T/C (second compound 1 µM, first compound 3 µM): 10.7%
